# pIC50: −log10 of the molar value.
# How the values were obtained:
# [1] = Metabolic (microsomal) stability assay, human liver microsomes (HLM); assay type: in vitro ADME; conditions: 1 μM test compound, 37° C.
# Procedure: (§1) Metabolic (Microsomal) Stability Assay: The metabolic degradation of the test compound is assayed at 37° C. with pooled liver microsomes (mouse (MLM), rat (RLM) or human (HLM)). The final incubation volume of 74 μL per time point contains TRIS buffer (pH 7.5; 0.1 M), magnesium chloride (6.5 mM), microsomal protein (0.5 mg/mL for mouse/rat, 1 mg/mL for human specimens) and the test compound at a final concentration of 1 μM. Following a short preincubation period at 37° C., the reactions are initiated by addition of 8 μL beta-nicotinamide adenine dinucleotide phosphate, reduced form (NADPH, 10 mM) and terminated by transfering an aliquot into solvent after different time points. Additionally, the NADPH-independent degradation is monitored in incubations without NADPH, terminated at the last time point by addition of acetonitrile. The quenched incubations are pelleted by centrifugation (1811 g, 5 min). An aliquot of the supernatant is assayed by LC-MS/MS for the amount of parent compound. In vitro intrinsic clearance (CLint, in vitro) is calculated from the time course of the disappearance of the test drug during the microsomal incubation. Each plot is fitted to the first-order elimination rate constant as C(t)=C0*exp(−ke*t), where C(t) and C0 are the concentration of unchanged test drug at incubation time t and that at preincubation and ke is the disappearance rate constant of the unchanged drug. Subsequently, CLint, in vitro (μL min^−1·amount protein) values are converted to CLint, in vitro (mL min^−1·kg^−1) for the whole body. CLint, in vitro data are scaled up using physiological parameters. For better across species comparison the predicted clearance is expressed as percent of the liver blood flow [% QH] in the individual species. In general, high stability (corresponding to low % QH) of the compounds across species is desired.
# [2] = Metabolic (microsomal) stability assay, mouse liver microsomes (MLM); assay type: in vitro ADME; conditions: 1 μM test compound, 37° C.
# Procedure: as §1
# [3] = Metabolic (microsomal) stability assay, rat liver microsomes (RLM); assay type: in vitro ADME; conditions: 1 μM test compound, 37° C.
# Procedure: as §1
# [4] = target: protein-protein interaction between SOS1 and KRAS G12D (Homo sapiens (Human), UniProt Q07889); test: KRAS::SOS1 AlphaScreen Binding Assay
# Chain of protein-protein interaction between SOS1 and KRAS G12D (Q07889 564-1049, stated change not applied): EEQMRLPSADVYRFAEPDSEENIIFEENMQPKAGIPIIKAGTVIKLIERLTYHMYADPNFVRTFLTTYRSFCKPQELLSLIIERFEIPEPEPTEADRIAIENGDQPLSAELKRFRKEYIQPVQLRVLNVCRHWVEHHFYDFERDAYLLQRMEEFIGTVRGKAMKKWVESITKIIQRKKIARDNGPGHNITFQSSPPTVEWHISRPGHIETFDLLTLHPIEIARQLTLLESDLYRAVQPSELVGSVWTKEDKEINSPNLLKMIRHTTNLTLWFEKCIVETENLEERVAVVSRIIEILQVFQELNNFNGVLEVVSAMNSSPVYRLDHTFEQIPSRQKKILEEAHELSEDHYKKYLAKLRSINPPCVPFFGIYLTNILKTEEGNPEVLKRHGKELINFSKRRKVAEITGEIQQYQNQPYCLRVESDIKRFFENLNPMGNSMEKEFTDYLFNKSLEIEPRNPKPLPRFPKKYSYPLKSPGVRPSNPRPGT
# Text: KRAS::SOS1 AlphaScreen Binding Assay
# Low IC50 values are indicative of high potency of the SOS1 inhibitor compound in this assay setting:
# Reagents: • GST-tagged SOS1 (564_1049_GST_TEV_ECO) produced in-house • GST-TEV-SOS1 (564-1049) is purchased from Viva Biotech Ltd. • 6×His-Tev-K-RasG12D(1-169)Avi is purchased from Xtal BioStructures, Inc. (Lot # X129-110) • GDP (Sigma Cat No G7127) • AlphaLISA Glutathione Acceptor Beads (PerkinElmer, Cat No AL109) • AlphaScreen Streptavidin Donor Beads (PerkinElmer Cat No 6760002) • Assay plates: Proxiplate-384 PLUS, white (PerkinElmer, Cat No 6008289)
# 10 nM (final assay concentration) KRAS G12D, 10 μM (final assay concentration) GDP and 5 nM (final assay concentration) GST-SOS1 are mixed in assay buffer prior to use and kept at room temperature.
# AlphaLISA Glutathione Acceptor Beads and AlphaScreen Streptavidin Donor Beads are mixed in assay buffer at a concentration of 10 μg/mL (final assay concentration) each prior to use and kept at room temperature.
# Compounds are diluted to a final start concentration of 100 μM and are tested in duplicate. Assay-ready plates (ARPs) are generated using an Access Labcyte Workstation with a Labcyte Echo 550 or 555 accoustic dispenser. For compound a start concentration of 100 μM, 150 nL of compound solution is transferred per well in 11 concentrations in duplicate with serial 1:5 dilutions.
# The assay is run using a fully automated robotic system in a darkened room below 100 Lux. 10 μL of KRAS::SOS1 GDP mix is added into columns 1-24 to the 150 nL of compound solution (final dilution in the assay 1:100, final DMSO concentration 1%).
# After a 30 minute incubation time 5 μL of bead mix is added into columns 1-23. Plates are kept at room temperature in a darkened incubator. After a further 60 minute incubation, the signal is measured using a PerkinElmer Envision HTS Multilabel Reader using the AlphaScreen specifications from PerkinElmer. Each plate contains the following controls: • diluted DMSO+KRAS::SOS1 GDP mix+bead mix • diluted DMSO+KRAS::SOS1 GDP mix
# IC50 values are calculated and analyzed using a 4 parametric logistic model.
# [5] = system: ERK phosphorylation in DLD-1 cells (KRAS G13D); test: ERK Phosphorylation Assay (AlphaLISA SureFire Ultra p-ERK1/2); assay type: cell-based; conditions: Homo sapiens, 1 h compound, EGF 50 ng/mL 10 min, read-out: pERK
# Procedure: ERK Phosphorylation Assay
# Low IC50 values are indicative of high potency of the SOS1 inhibitor compounds in this assay setting.
# ERK phosphorylation assays are performed using the following human cell lines: DLD-1 (ATCC CCL-221): human colon cancer with a KRAS G13D mutation;
# DLD-1 cells (ATCC CCL-221) are seeded at 50,000 cells per well in/60 μL of RPMI with 10% FBS, non-essential amino acids, pyruvate and glutamax in Greiner TC 384 plates. The cells are incubated for 1 h at room temperature and then incubated overnight in an incubator at 37° C. and 5% CO2 in a humidified atmosphere. 60 nL compound solution (10 mM DMSO stock solution) is then added using a Labcyte Echo 550 device. After a 1 h incubation in the aforementioned incubator, 3 μL Epidermal Growth Factor (EGF, final concentration 50 ng/mL) is added. 10 minutes later the medium is removed, and the cells lysed by addition of 20 μL of 1.6-fold lysis buffer from the AlphaLISA SureFire Ultra pERK1/2 (Thr202/Tyr204) Assay Kit with added protease inhibitors, 100 nM trametinib+100 nM staurosporine. After 20 minutes of incubation at room temperature with shaking, 6 μL of each lysate sample is transferred to a 384-well Proxiplate and analyzed for pERK (Thr202/Tyr204) with the AlphaLISA SureFire Ultra pERK1/2 (Thr202/Tyr204) Assay Kit. 3 μL Acceptor Mix and 3 μL Donor Mix are added under subdued light and incubated for 2 h at room temperature in the dark, before the signal is measured on a Perkin Elmer Envision plate reader using 384 AlphaScreen settings for Proxiplates. Data are fitted by iterative calculation with variable hill slope. The sigmoidal curve slope is fitted using a default fitting curve to ascertain IC50 values.
# [6] = Table 20, KRAS::SOS1 AlphaScreen (SOS1 / KRAS G12D)
# [7] = KRAS G12D::SOS1 AlphaScreen, measured without EDTA unless marked with an asterisk
Structure (SMILES),HLM [% QH] [1] [% QH],MLM [% QH] [2] [% QH],RLM [% QH] [3] [% QH],"pIC50 [4, 6]","pIC50 [4, 7]",pIC50 [5]
C[C@@H](Nc1ncnc2cc(=O)n(C34CC(F)(C3)C4)cc12)c1cccc(C(F)F)c1F [I-71],<24,<24,<23,8.15,,
Cc1nc(N[C@H](C)c2cccc(C(F)(F)F)c2C)c2cn([C@H]3C[C@](O)(C(F)(F)F)C3)c(=O)cc2n1 [I-47],24,<24,29,7.48,,
Cc1nc(N[C@H](C)c2cccc(C(F)(F)C(C)(C)O)c2F)c2cn(C34CC(C3)C4)c(=O)c(F)c2n1 [I-90],<24,<24,<23,8.40,,
Cc1c(=O)n(C2(C)CC2)cc2c(N[C@H](C)c3cccc(C(F)F)c3F)ncnc12 [I-161],31,44,<23,,7.92,
Cc1nc(N[C@H](C)c2cccc(C(F)(F)F)c2)c2cn(C(C)C)c(=O)cc2n1 [I-27],<24,88,<23,7.42,,
C[C@@H](Nc1ncnc2c(F)c(=O)n(C3(C(F)F)CC3)cc12)c1cccc(C(F)F)c1F [I-96],<24,30,<23,8.15,,
Cc1nc(N[C@H](C)c2cccc(C(C)(F)F)c2F)c2cn(C3(C)CC3)c(=O)c(F)c2n1 [I-86],<24,33,<23,8.22,,
Cc1c(=O)n([C@H]2C[C@@H]2C(F)F)cc2c(N[C@H](C)c3cccc(C(F)F)c3F)ncnc12 [I-165],<24,54,<23,,7.77,
Cc1nc(N[C@H](C)c2cccc(C(F)F)c2F)c2cn(C3(C)CC(F)(F)C3)c(=O)cc2n1 [I-14],27,26,56,7.68,,
Cc1nc(N[C@H](C)c2cccc(C(C)(F)F)c2)c2cn(C34CC(F)(C3)C4)c(=O)cc2n1 [I-51],<24,<24,49,7.51,,
Cc1c(=O)n(-c2cnn(C)c2)cc2c(N[C@H](C)c3cccc(C(F)F)c3F)ncnc12 [I-172],<24,53,<23,,7.85,
C[C@@H](Nc1ncnc2cc(=O)n([C@H]3C[C@H](F)C3)cc12)c1cccc(C(F)F)c1F [I-69],<24,<24,40,8.22,,
Cc1c(=O)n(C23CC(F)(C2)C3)cc2c(N[C@H](C)c3cccc(C(C)(F)F)c3F)ncnc12 [I-176],,,,,8.00,6.92
Cc1nc(N[C@H](C)c2cccc3c(F)coc23)c2cn(C3(C(F)F)CC3)c(=O)cc2n1 [I-103],,,,8.30,,7.15
Cc1c(=O)n(C23CCC(CC2)C3)cc2c(N[C@H](C)c3cccc4c3CCC4(F)F)ncnc12 [I-177],,,,,8.70,7.04
Cc1nc(N[C@H](C)c2cccc(C(F)F)c2C)c2cn(C3(C)CCC3)c(=O)cc2n1 [I-23],,,,8.40,,6.95
Cc1nc(N[C@H](C)c2cccc(C(F)(F)CO)c2F)c2cn(C34CCC(CC3)C4)c(=O)cc2n1 [I-61],,,,9.00,,7.02
Cc1nc(N[C@H](C)c2cccc3c2CCC3(F)F)c2cn(C3(C(F)F)CC3)c(=O)cc2n1 [I-58],,,,8.70,,7.05
Cc1nc(N[C@H](C)c2cccc(C(C)(F)F)c2F)c2cn(C3(C)CC3)c(=O)cc2n1 [I-52],,,,8.40,,7.02
Cc1nc(N[C@H](C)c2cccc(C(F)F)c2F)c2cn(C3(C(F)F)CC3)c(=O)cc2n1 [I-3],<24,51,<23,,,
Cc1nc(N[C@H](C)c2cccc3c2OCC3(F)F)c2cn(C3(C(F)F)CC3)c(=O)cc2n1 [I-102],,,,8.40,,7.17
Cc1nc(N[C@H](C)c2cccc(C(F)F)c2C)c2cn(C34CCC(C(=O)N(C)C)(CC3)CC4)c(=O)cc2n1 [I-124],,,,,8.70,7.07
Cc1nc(N[C@H](C)c2cccc(C(F)(F)CO)c2F)c2cn(C34CCC(CC3)CC4)c(=O)cc2n1 [I-130],,,,,9.00,7.42
Cc1nc(N[C@H](C)c2cccc(C(F)F)c2C)c2cn(C3(C)CC3)c(=O)c(C)c2n1 [I-157],,,,,8.30,6.98
